According to US12692290B2, “Modulators of tight junction permeability” (The University of Bath, priority 2020, dated 2026):
Where “and” joins values, the source holds several entries; their conditions need not be identical. Equal values may be shown once. Read-outs that look alike come from different tables or passages of the source. Where a SMILES comes first, the peptide text is derived from it. [ ]: non-standard residue; d: D form.

Tests used:
[1] = tested on: Caco-2 monolayers; assay: TEER of Caco-2 monolayers after apical PIP peptide; assay type: cell-based, human; details: 5 mM peptide for 180 min, then washout, 90 min recovery
[2] = target: PP1 (Homo sapiens, UniProt P62140); assay: Binding assay of biotinylated peptides or MYPT1 1-299 to immobilised His-tagged PP1
PP1, sequence (P62140 whole entry, the tested form may be a part): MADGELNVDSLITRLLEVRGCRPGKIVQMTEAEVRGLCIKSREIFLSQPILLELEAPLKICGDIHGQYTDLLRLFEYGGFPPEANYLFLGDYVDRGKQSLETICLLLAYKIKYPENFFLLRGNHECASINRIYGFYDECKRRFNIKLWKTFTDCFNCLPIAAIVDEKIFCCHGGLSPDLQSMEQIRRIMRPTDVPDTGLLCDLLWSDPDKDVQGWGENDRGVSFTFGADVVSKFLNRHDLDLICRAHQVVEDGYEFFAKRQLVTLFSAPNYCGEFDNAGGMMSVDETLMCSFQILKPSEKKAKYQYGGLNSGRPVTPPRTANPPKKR
Description: (§1) His-tagged PP1 diluted in PBS-T was incubated in nickel coated wells for 1 hour and washed three times with PBS-T. Wells were incubated with increasing concentrations of biotinylated PIP peptides or amino acids 1-299 of MYPT1. Wells were washed again three times with PBS-T and incubated with streptavidin conjugated to Alexa Fluor 488 for 1 hour. Wells were washed as previously and the plate was read for fluorescence (Ex:480 nm, Em: 510 nm).

[3] = tested on: myosin light chain (MLC) phosphorylation; assay: Western blot, ratio of pMLC to total MLC in Caco-2 lysates; assay type: cell-based, human; details: 5 mM peptide, Caco-2 monolayers
Description: (§2) Lysates of Caco-2 monolayers prepared using 200 μL RIPA buffer along with 10 μL protease and phosphatase inhibitors per well were placed in 1.5 mL Eppendorf tubes and centrifuged at 4000×g for 10 min with supernatants being removed and stored at −80° C. until separation using a 12% SDS-PAGE gel. Protein samples were mixed 1:1 with loading buffer and denatured by heating at 95° C. for 5 min with 20 μL being loaded for analysis. Separated proteins were transferred onto a nitrocellulose membrane at 30 V for 75 min. Membranes were blocked with 5% bovine serum albumin in TBS-T for 2 h prior to an overnight incubation at 4° C. with primary antibodies diluted in TBS-T. Membranes were thrice washed with TBS-T and then incubated with fluorescent-tagged secondary antibodies at room temperature for 2 h. Membranes were thrice washed with TBS-T and analysed using a Licor imaging system.

[4] = tested on: occludin; assay: Western blot for occludin in lysates of Caco-2 monolayers; assay type: cell-based, human; details: Caco-2 monolayers treated for 90 min
Description: as §2

[5] = target: MYPT1 binding to PP1; assay: MYPT1/PP1 binding assay in presence of increasing PIP peptide concentrations; details: read-out: KI for inhibition of MYPT1 binding to PP1
Description: as §1
The binding assay with MYPT1 was repeated in the presence of increasing concentrations of PIP peptides to determine the competition between MYPT1 and the peptides.

[6] = tested on: Caco-2 monolayers; assay: TEER of Caco-2 monolayers after apical PIP peptide; assay type: cell-based, human; details: for TEER % of initial baseline at time of washout: 5 mM peptide for 180 min, Caco-2; for Effect on TEER compared to control (FIG. 1): 5 mM peptide, Caco-2 monolayer, one-way ANOVA with bonferroni post-test; for TEER reduced to % of baseline: 5 mM applied to apical surface of Caco-2 monolayers
Description: An immortalized human intestinal epithelial cell line (Caco-2) was maintained in DMEM/F12 (Gibco, Paisley, UK) supplemented with 10% FBS, 2 mM L-glutamine (Gibco) 100 U/mL penicillin and 100 μg/mL streptomycin (Gibco). Caco-2 cells were seeded at a density of 7×10^4/well on Transwell™ (Corning, NY) polyester membrane filters (12 mm diameter, 0.4 μm pore size). Feeding with fresh media (Life Technologies, Paisley, UK) was carried out every second day. Caco-2 monolayers with trans-epithelial electrical resistance (TEER) >350 Ω·cm^2 were used for these studies; such TEER values as measured using fixed paddle electrodes and a voltohmeter (World Precision Instruments, UK), were typically achieved between days 15-18 following seeding on Transwell™ filters.
Apical to basal flux of 10 mg/mL 4 kDa fluorescent dextran (Sigma) was performed to assess PIP peptide impact on paracellular permeability. Apical (200 μL) and basal (500 μL) compartment media were replaced with fresh HBSS and allowed to equilibrate for 30 min when TEER measurements were obtained to ensure monolayer integrity. After apical application of the fluorescent dextra the basal compartment volume was collected at set times (typically 0, 15, 30 60, 90, 120 and 180 min) and replaced with fresh HBSS each time. Apical and basal compartment fluorescence was determined using a Fluorostar Omega microplate reader (BMG Labtech, Ortenburg, Germany). After 3 h, the apical compartment fluorescent dextran/peptide solution was removed and replaced with PBS and TEER values were recorded for a further 30 min to monitor monolayer recovery. TEER values were calculated by subtracting blank filter readings and normalized as a percentage of the initial TEER value for that monolayer.

Row | Kd ([2]; derived from binding curves, read-out: KD for binding to PP1) [µM] | Kd ([2]; same assay, read-out: KD for binding to PP1) [µM] | Molecule | TEER % of baseline 90 min after washout [1] [%] | Kd [2] [µM] | ratio of pMLC to MLC compared to untreated control [3] | occludin level % of control [4] [%] | Ki [5] [µM] | TEER % of initial baseline at time of washout [6] | Effect on TEER compared to control (FIG. 1) [6] | TEER reduced to % of baseline [6] [%]
1 | – | – | CC(C)[C@@H](NC(=O)[C@@H](CCCCN)NC(=O)[C@@H](Cc1ccccc1)NC(=O)[C@@H](CCCNC(=N)N)NC(=O)[C@H](N)CCCNC(=N)N)C(=O)N[C@H](CCCCN)C(=O)N[C@@H](C(=O)N[C@H](CCCCN)C(=O)N[C@H](CCCCN)C(=O)N[C@H](CCCNC(=N)N)C(=O)N[C@H](CCCCN)C(N)=O)[C@H](C)O [PIP250, H-rrfkvktkkrk-NH2, reference compound] (H-[dR][dR][dF][dK][dV][dK][dT][dK][dK][dR][dK]-NH2) | 54 | 610 | significantly increased | 65.8 | 155 | ~ 50% and 49% | significantly different from control | –
2 | – | – | CC(C)[C@@H](NC(=O)[C@@H](CCCCN)NC(=O)[C@@H](C)NC(=O)[C@@H](CCCNC(=N)N)NC(=O)[C@H](N)CCCNC(=N)N)C(=O)N[C@H](CCCCN)C(=O)N[C@@H](C(=O)N[C@H](CCCCN)C(=O)N[C@H](CCCCN)C(=O)N[C@H](CCCNC(=N)N)C(=O)N[C@H](CCCCN)C(N)=O)[C@H](C)O [PIP251, H-rrakvktkkrk-NH2] (H-[dR][dR][dA][dK][dV][dK][dT][dK][dK][dR][dK]-NH2) | 94 | 1280 | increased the ratio of pMLC to MLC, however to a lesser extent than the parent PIP250 | 84.1 | – | 58% | significantly different from control | 62.7
3 | – | – | C[C@H](O)[C@@H](NC(=O)[C@@H](CCCCN)NC(=O)[C@@H](C)NC(=O)[C@@H](CCCCN)NC(=O)[C@@H](Cc1ccccc1)NC(=O)[C@@H](CCCNC(=N)N)NC(=O)[C@H](N)CCCNC(=N)N)C(=O)N[C@H](CCCCN)C(=O)N[C@H](CCCCN)C(=O)N[C@H](CCCNC(=N)N)C(=O)N[C@H](CCCCN)C(N)=O [PIP252, H-rrfkaktkkrk-NH2] (H-[dR][dR][dF][dK][dA][dK][dT][dK][dK][dR][dK]-NH2) | 70 | 724 | increased the ratio of pMLC to MLC, however to a lesser extent than the parent PIP250 | 61.4 | – | 55% | significantly different from control | 66
4 | – | – | CC(C)[C@@H](NC(=O)[C@@H](CCCCN)NC(=O)[C@@H](CC(=O)O)NC(=O)[C@@H](CCCNC(=N)N)NC(=O)[C@H](N)CCCNC(=N)N)C(=O)N[C@H](CCCCN)C(=O)N[C@@H](C(=O)N[C@H](CCCCN)C(=O)N[C@H](CCCCN)C(=O)N[C@H](CCCNC(=N)N)C(=O)N[C@H](CCCCN)C(N)=O)[C@H](C)O [PIP253, H-rrdkvktkkrk-NH2] (H-[dR][dR][dD][dK][dV][dK][dT][dK][dK][dR][dK]-NH2) | – | – | did not significantly increase | – | – | – | not significant | 88
5 | – | – | C[C@H](O)[C@@H](NC(=O)[C@@H](CCCCN)NC(=O)[C@@H](CC(=O)O)NC(=O)[C@@H](CCCCN)NC(=O)[C@@H](Cc1ccccc1)NC(=O)[C@@H](CCCNC(=N)N)NC(=O)[C@H](N)CCCNC(=N)N)C(=O)N[C@H](CCCCN)C(=O)N[C@H](CCCCN)C(=O)N[C@H](CCCNC(=N)N)C(=O)N[C@H](CCCCN)C(N)=O [PIP254, H-rrfkdktkkrk-NH2] (H-[dR][dR][dF][dK][dD][dK][dT][dK][dK][dR][dK]-NH2) | – | – | did not significantly increase | – | – | – | not significant | 85
6 | 0.05 | 0.049 | MYPT11-299: amino acids 1-299 of MYPT1 (protein, UniProt O14974 1-299, looked up, fragment) MKMADAKQKRNEQLKRWIGSETDLEPPVVKRQKTKVKFDDGAVFLAACSSGDTDEVLKLLHRGADINYANVDGLTALHQACIDDNVDMVKFLVENGANINQPDNEGWIPLHAAASCGYLDIAEFLIGQGAHVGAVNSEGDTPLDIAEEEAMEELLQNEVNRQGVDIEAARKEEERIMLRDARQWLNSGHINDVRHAKSGGTALHVAAAKGYTEVLKLLIQAGYDVNIKDYDGWTPLHAAAHWGKEEACRILVDNLCDMEMVNKVGQTAFDVADEDILGYLEELQKKQNLLHSEKRDKKS | – | – | – | – | – | – | – | –
